Results reported in article PMC7998250, “Temperate Zone Plant Natural Products—A Novel Resource for Activity against Tropical Parasitic Diseases” (Pharmaceuticals, 2021).
Where two headings read alike, the source gives them in different places.

Legend:
[1] = system: P. falciparum Dd2Luc intraerythrocytic trophozoites; assay: Initial screen, intraerythrocytic P. falciparum, Malaria SYBR-Green I fluorescence assay; type: cell-based, Plasmodium falciparum; settings: Plasmodium falciparum, 48 h
Method: (§1) 634 compounds from the PhytoQuest Phytopure temperate plant natural product library were screened for growth inhibitory activity against L. mexicana axenic amastigotes, T. brucei bloodstream form, intraerythrocytic asexual P. falciparum (at 2 μM) and T. evansi bloodstream form parasites (at 1 μM). […] Our initial hits were defined as reducing growth of the parasite by ≥50%. […]
(§2) The PhytoQuest Phytopure library is a commercially available collection of purified compounds isolated predominantly from temperate zone plants, with structures confirmed by NMR and mass spectrometry. The library was provided as 634 non-polar compounds (1 mg/mL in DMSO). Initial screening was performed in a 96-well plate with 200 μL of parasite culture. The initial screen used each compound at a final concentration of 2 μM for L. mexicana axenic amastigotes, T. brucei and P. falciparum, and at 1 μM for T. evansi. L. mexicana axenic amastigotes were plated at 1 × 10^6 cells/mL, incubated for 72 h, and the Alamar Blue assay was used to assess parasite growth. Each compound was tested in triplicate, with two biological replicates (n = 6). T. brucei and T. evansi were plated at 1×10^5 cells/mL for 48 h, and the Alamar Blue assay was used to assess parasite growth. Each compound was tested in triplicate with two biological replicates (n = 6). Intraerythrocytic P. falciparum in the trophozoite stage were seeded at 0.5% parasitaemia and 2% haematocrit for 48 h, and the Malaria SYBR-Green I fluorescence assay was used to assess parasite growth. Each compound was tested in duplicate with two biological replicates (n = 4). Negative controls comprised an equivalent volume of DMSO (equivalent of 1% v/v) to normalise the growth data. Data points >100% growth and <0% growth were tabulated as 100% and 0%, respectively. Some compounds were not tested in all parasite lines as there was insufficient material remaining.

[2] = system: T. evansi bloodstream form; assay: Initial screen, T. evansi bloodstream form, Alamar Blue; type: cell-based, Trypanosoma evansi; settings: Trypanosoma evansi; for activity at 1 µM: initial screen; for inhibition of growth at 1 µM: x = initial hit, read-out: initial hit T.e
Method: (§3) 634 compounds from the PhytoQuest Phytopure temperate plant natural product library were screened for growth inhibitory activity against L. mexicana axenic amastigotes, T. brucei bloodstream form, intraerythrocytic asexual P. falciparum (at 2 μM) and T. evansi bloodstream form parasites (at 1 μM). […] Our initial hits were defined as reducing growth of the parasite by ≥50%.
(§4) L. mexicana strain MNYC/BZ/62/M379 and L. donovani strain LdBOB (a clonal line from strain MHOM/SD/62/1S-CL2) were maintained in vitro in the procyclic promastigote stage. Parasites were cultivated at 26 °C in Schneider’s medium (Gibco) pH 7.0 containing 10% FBS, 100 U/mL penicillin (Lonza) and 100 μg/mL streptomycin (Lonza) as previously described. Differentiation into axenic amastigotes was performed as described previously. Briefly, axenic amastigotes were cultivated at 32 °C in Schneider’s medium pH 5.5 containing 10% FBS, 100 U/mL penicillin (Lonza) and 100 μg/mL streptomycin (Lonza). Bloodstream form T. brucei brucei strain Lister 427 and T. evansi strain Antat 3/3 [59] were maintained in vitro at 37 °C with 5% (v/v) CO2 in HMI-11 medium supplemented with 10% FBS, as described elsewhere. Intraerythrocytic cultures of P. falciparum Dd2^Luc strain [62] were maintained at 37 °C in a 1% O2:3% CO2:96% N2 atmosphere in RPMI-1640 containing 37.5 mM HEPES, 5 mM NaOH, 10 mM D-glucose, 2 mM L-glutamine, 100 μM hypoxanthine, […] gentamicin sulfate, 5% human serum and 5% albumax-II and 2% haematocrit erythrocytes. When required, cultures were synchronised to ring stages using the sorbitol lysis method. Preliminary cytotoxicity screening was assessed using HepG2 cells. These cells were maintained in vitro at 37 °C with 5% (v/v) CO2 in DMEM (Sigma) pH 7 supplemented with 10% FBS, 100 U/mL penicillin (Lonza) and 100 μg/mL streptomycin (Lonza), as previously described. The human monocyte cell line THP-1 [68] was maintained in vitro by culturing at 37 °C with 5% (v/v) CO2 in complete RPMI medium (Dutch modified RPMI-1640 (Gibco) containing 10% FBS and 2 mM L-glutamine (Gibco)). Differentiation of THP-1 cells into macrophages was performed by seeding 2.5 × 10^5 cells/mL in complete RPMI media, supplemented with 20 ng/mL phorbol 12-myristate 13-acetate (PMA), followed by incubation at 37 °C with 5% (v/v) CO2 for 24 h.
as §2, with “The” for “The PhytoQuest Phytopure library is a commercially available collection of purified compounds isolated predominantly from temperate zone plants, with structures confirmed by NMR and mass spectrometry. The”

[3] = system: T. brucei bloodstream form; assay: Initial screen, T. brucei bloodstream form, Alamar Blue; type: cell-based, Trypanosoma brucei brucei; settings: for initial hit against T. brucei / inhibition of growth at 2 µM: 2 μM; for initial hit against T. brucei: growth reduced by ≥50%; for activity at 2 µM / inhibition of growth at 2 µM: Trypanosoma brucei; for activity at 2 µM: initial screen; for inhibition of growth at 2 µM: x = initial hit, read-out: initial hit T.b
Method: as §3, §4
as §2, with “The” for “The PhytoQuest Phytopure library is a commercially available collection of purified compounds isolated predominantly from temperate zone plants, with structures confirmed by NMR and mass spectrometry. The”

[4] = system: T. evansi; assay: Concentration-response EC50, T. evansi; type: cell-based; settings: Trypanosoma evansi; bloodstream form, 48 h; read-out: T. evansi EC50
Method: EC50 values were determined by serial two-fold dilution of each compound in 96 well plates. Culture conditions and viability assays were as stated for the initial screen, with some exceptions. L. mexicana and L. donovani axenic amastigotes were seeded at 2 × 10^6 cell/s mL, T. brucei and T. evansi were seeded at 2 × 10^5 cells/mL. For cytotoxicity studies, HepG2 cells were seeded at 1 × 10^5 cells/mL, incubated for 48 h and viability was assessed using the Alamar Blue assay [66, 67]. […] Normalised growth and viability data (compared to untreated controls) were plotted against Log10 concentration to estimate EC50 in GraphPad (Prism v6).

[5] = system: L. mexicana axenic amastigotes; assay: Initial screen, L. mexicana axenic amastigotes, Alamar Blue; type: cell-based, Leishmania mexicana; settings: for activity at 2 µM / inhibition of growth at 2 µM: Leishmania mexicana; for initial hit against L. mexicana / inhibition of growth at 2 µM: 2 μM; for initial hit against L. mexicana: growth inhibited by ≥80%; for inhibition of growth at 2 µM: x = initial hit, read-out: initial hit L.m
Method: as §1, §2

[6] = in vitro; settings: human, pH 7, HepG2 CC50
Excerpt: Initial hits from the parasite panel screen were taken forward in log concentration versus normalised response assays to estimate the half maximal effective concentration (EC50) in hit species as well as the half maximal cytotoxic concentrations (CC50) in the human hepatoma cell line HepG2 as a preliminary test for selectivity. Using CC50/EC50 to define the selectivity index (SI), the selectivity for each compound in a defined species compared to a human cell line was estimated and compared to the EC50 (Figure 3).
as §4
EC50 values were determined by serial two-fold dilution of each compound in 96 well plates. Culture conditions and viability assays were as stated for the initial screen, with some exceptions. L. mexicana and L. donovani axenic amastigotes were seeded at 2 × 10^6 cell/s mL, T. brucei and T. evansi were seeded at 2 × 10^5 cells/mL. For cytotoxicity studies, HepG2 cells were seeded at 1 × 10^5 cells/mL, incubated for 48 h and viability was assessed using the Alamar Blue assay. Differentiated THP-1 cells were seeded at 5 × 10^4 cells/mL, incubated for 48 h, and viability was assessed by the Alamar Blue assay. Normalised growth and viability data (compared to untreated controls) were plotted against Log10 concentration to estimate EC50 in GraphPad (Prism v6). Bioluminescence relative rate of kill assays in asexual intraerythrocytic P. falciparum Dd2^Luc were carried out as described.

[7] = system: L. mexicana axenic amastigotes; assay: Concentration-response EC50, L. mexicana axenic amastigotes (WT); type: cell-based, Leishmania mexicana; settings: Leishmania mexicana, 72 h, read-out: L. mexicana EC50, axenic amastigotes, 72 h
[8] = Cytotoxicity CC50, differentiated THP-1, Alamar Blue; type: cell-based, human; settings: human, THP-1 cells differentiated into macrophages with PMA, differentiated THP-1, 48 h; read-out: THP1 CC50
Excerpt: The four lanosterone-like sterols derived from the Noble Fir Abies procera (700022, 700107, 700136) and the Grand Fir Abies grandis (700240) were the only initial compounds taken forward for L. mexicana due to their nanomolar activity and apparent low cytotoxicity (Figure 3a). […] Understanding the impact of the ring-opened lactone head group in this compound compared to the other three warrants further analysis in exploring their structure-activity relationships. These four sterols were also tested for growth inhibitory activity against L. donovani axenic amastigotes. […] As Leishmania spp. amastigotes typically reside with macrophages, further cytotoxicity assays with these sterols were performed against an activated monocyte cell line (THP-1) (Figure 4b). […]

[9] = system: T. brucei; assay: Concentration-response EC50, T. brucei; type: cell-based, Trypanosoma brucei brucei; settings: Trypanosoma brucei, 48 h, bloodstream form, 48 h; read-out: T. brucei EC50
[10] = read-out: %growth P. falciparum, mean % growth compared to a normalised control with same concentration of DMSO solvent, initial screen
[11] = mean % growth compared to a normalised control with same concentration of DMSO solvent, read-out: % growth T. evansi
[12] = mean % growth compared to a normalised control with same concentration of DMSO solvent, read-out: % growth T. b. brucei
[13] = read-out: % growth L. mexicana, mean % growth compared to a normalised control with same concentration of DMSO solvent, initial screen
[14] = read-out: mean % growth, P. falciparum, initial screen, compared to a normalised control with same concentration of DMSO solvent
[15] = compared to a normalised control with same concentration of DMSO solvent, read-out: mean % growth, T. evansi
[16] = compared to a normalised control with same concentration of DMSO solvent, read-out: mean % growth, T. b. brucei
[17] = read-out: mean % growth, L. mexicana, initial screen, compared to a normalised control with same concentration of DMSO solvent

| Compound | activity at 2 µM [1, 10] | activity at 1 µM [2, 11] | inhibition of growth at 1 µM [2] | initial hit against T. brucei [3] | activity at 2 µM [3, 12] | inhibition of growth at 2 µM [3] | EC50 [4] | activity at 2 µM [5, 13] | CC50 at 48 h [6] | activity at 2 µM [1, 14] | activity at 1 µM [2, 15] | activity at 2 µM [3, 16] | activity at 2 µM [5, 17] | EC50 [7] | CC50 at 48 h [8] | inhibition of growth at 2 µM ([1]; read-out: initial hit P.f) | initial hit against L. mexicana [5] | inhibition of growth at 2 µM [5] | EC50 [9] |
| --- | --- | --- | --- | --- | --- | --- | --- | --- | --- | --- | --- | --- | --- | --- | --- | --- | --- | --- | --- |
| C/C=C(\C)C(=O)OC1C(C)OC(Oc2c(C(C)C)ccc(C)c2O)C(O)C1OC1OC(C)C(OC(=O)C(C)CC)C(O)C1O (stereo not drawn) [Compound 700004] | 101% | 0.7% | > 50% | initial hits | 14% | > 50% | 357 nM | 48.1% | 16000 nM |  |  |  |  |  |  |  |  |  |  |
| COc1ccc(CC2COC(=O)C2Cc2ccc(OC)c(O)c2O)cc1OC (stereo not drawn) [Compound 700144] | 82.6% | 35.8% | > 50% |  | 69.4% |  | 451 nM | 83.6% | > 100000 nM |  |  |  |  |  |  |  |  |  |  |
| C/C(=C\C(=O)O)C(O)CC12CCCCC1C(C)(C(=O)OC(O)O)CCC2 (stereo not drawn) [Compound 700513] |  |  | > 50% |  |  |  | 756 nM |  | > 100000 nM | 97% | 50% | 104% | 56.5% |  |  |  |  |  |  |
| C=C1C(=O)OC2/C=C(/C)CC/C=C(/C)CC(OC(=O)/C(C)=C\CO)C12 (stereo not drawn) [Compound 700756] |  |  |  |  |  |  |  |  |  | 44% | 98.4% | 53.7% | 2.9% | 1000 nM | 2800 nM | > 50% | initial hits | > 80% |  |
| CC#CC#CC(=O)c1cccc(OC)c1C(=O)OC [Compound 701044] |  |  |  |  |  |  |  |  |  | 92.6% | 90.3% | 79.3% | -4.5% | 330 nM | 2200 nM |  | initial hits | > 80% |  |
| CC(=O)OC1C(COC(=O)/C=C/c2ccc(O)cc2)OC(Oc2c(-c3ccc(O)cc3)oc3cc(O)cc(O)c3c2=O)C(OC(=O)/C=C/c2ccc(O)cc2)C1O (stereo not drawn) [Compound 701088] |  |  | > 50% |  |  |  | 816 nM |  | 54000 nM | 99.9% | 42.7% | 63% | 81.1% |  |  |  |  |  |  |
| C=C(CC)C(=O)OC1CC(=C)C2CC(O)C(=C)C2C2OC(=O)C(=C)C12 (stereo not drawn) [Compound 701212] |  |  |  |  |  |  |  |  |  | 84.7% | 86.5% | 77.1% | 1.5% | 330 nM | 520 nM |  | initial hits | > 80% |  |
| CC#CC#CCc1cccc(O)c1 [Compound 701241] |  |  |  | initial hits |  | > 50% |  |  | 670 nM | 96.5% |  | -1.9% | 15% | 330 nM | 270 nM |  | initial hits | > 80% | 2200 nM |
